Assays:
[1] = Liposome encapsulation test, remote loading method (Experimental Example 4); format: physicochemical;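 as to Encapsulation efficiency: encapsulated compound as percent of compound amount introduced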;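 as to Encapsulation rate: encapsulated compound as percent of compound in liposome solution after insolubles removed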
Experimental: For Example 1, Example 2, Example 3, Example 4, Example 5, Example 6, Example 7, Example 8, Example 9, Example 10, Example 11, Example 12, Example 13, Example 14, Example 15, Example 16, Example 17 and Alvocidib, an encapsulation test in liposomes was performed using a remote loading method.
<Liposome Encapsulation Test of Example 1, Example 2, Example 5, Example 6, Example 9, Example 10, Example 11, Example 12, Example 13, Example 14, Example 15, and Example 16>
(§1) Hydrogenated soybean phosphatidylcholine (COATSOME NC-21E, manufactured by NOF CORPORATION, 7.77 g), cholesterol (manufactured by Sigma, 2.78 g) and distearoylphosphatidylethanolamine-methoxypolyethylene glycol 2000 (SUNBRIGHT DSPE-020CN, manufactured by NOF CORPORATION, 2.47 g) were dissolved in tert-butyl alcohol (720 mL) warmed to 65° C. The solution was placed in an eggplant flask and frozen in a dry ice-acetone bath, and then the tert-butyl alcohol was removed by evaporation under reduced pressure to give a lipid mixture.
To the above lipid mixture was added a 250 mM ammonium sulfate solution (240 mL), and the mixture was warmed to 65° C., and dispersed by a homogenizer (ULTRA-TURRAX, manufactured by IKA) to give a crude liposome dispersion. Then, the crude liposome dispersion was dispersed by a high pressure homogenizer (Nano-Mizer NM2, manufactured by YOSHIDA KIKAI CO., LTD.) at a pressure of 100 MPa to give liposomes with an average particle size (Z-average) of about 80 nm. The liposome outer solution was replaced with 10 mM L-histidine/10% sucrose solution (pH 6.5) using a dialysis cassette (Slide-A-Lyzer G2 Dialysis Cassettes 20K MWCO, manufactured by Thermo Scientific) to give an empty liposome solution. The solution was filtered through a 0.22 μm membrane filter, and a 10 mM L-histidine/10% sucrose solution (pH 6.5) was added thereto to adjust the total lipid concentration to 50 mM (50 μmol/mL). The lipid concentration was determined by quantitatively analyzing cholesterol using HPLC and calculating the total lipid concentration from the lipid mixing ratio. The amount for the above adjustment was increased or decreased as appropriate.
The compound (10 mg) was weighed, and the empty liposome solution (1 mL) with a total lipid concentration of 50 mM was added thereto. The solution was adjusted to pH 5 to 6 with 1 mol/L hydrochloric acid or 1 mol/L aqueous sodium hydroxide solution as necessary, warmed in a 65° C. water bath for 2 to 3 minutes, and ice-cooled. The mixture was centrifuged at 15,000×g for 5 minutes to precipitate and remove insoluble substances.
The liposome solution (100 μL) after removing insoluble substances was taken on an ultrafiltration filter (Amicon Ultra, 100K, 0.5 mL, manufactured by Merck) and centrifuged at 4° C., 15,000×g for 10 minutes. The compound concentrations in the liposome solution after removing insoluble substances and in the filtrate after ultrafiltration were determined by HPLC, and the encapsulation rate, encapsulation efficiency, and encapsulated compound content per 50 μmol of lipid were calculated by the following formula.
The measurement conditions for HPLC are as follows.
An empty liposome solution with a total lipid concentration of 75 mM was prepared by the same procedure as for the above example compound group. Each compound was weighed, and the empty liposome solution with a total lipid concentration of 75 mM was added thereto such that the compound concentration became 15 mg/mL. The solution was adjusted to pH 5 to 6 with 1 mol/L hydrochloric acid or 1 mol/L aqueous sodium hydroxide solution, warmed in a 65° C. water bath for 3 minutes, and ice-cooled. Hereafter, the encapsulation rate and encapsulation efficiency were calculated by the same procedure as for the above example compound group. The encapsulated compound content per 50 μmol of lipid was calculated by the following formula.
[formula] <Liposome Encapsulation Test of Example 7, Example 8 and Example 17> […]

[2] = mice, 2.5 mg/kg administration; cited from earlier work
[3] = Evaluation of conversion rate to active form in buffer solution (Experimental Example 1); format: physicochemical; settings: for Conversion to Alvocidib at pH 7.4: pH 7.4, 37° C., up to 3 hours
Summary of the method: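 Conversion to Alvocidib was followed by HPLC over 3 hours at 37° C, with test compounds at 25 umol/L in 50 mM citrate or phosphate buffers spanning pH 5.0–7.4.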

[4] = Evaluation of conversion rate to active form in BALB/c mouse plasma (Experimental Example 3); format: in vitro ADME; settings: BALB/c, mouse, 0.2 μmol/L
Experimental: (§2) For Example 1, Example 2, Example 3, Example 4, Example 5, Example 6, Comparative Example 3, Comparative Example 4, Comparative Example 6, Comparative Example 7, Comparative Example 8, Comparative Example 9, Comparative Example 10 and Comparative Example 12, the attrition rate of the test compound and the conversion rate of the test compound to Alvocidib in human plasma and BALB/c mouse plasma were calculated by the following method.
(§3) The test compound was added to human plasma or BALB/c mouse plasma at a concentration of 0.2 μmol/L, and incubated at 37° C. The peak areas of the test compound and Alvocidib in the sample were determined by LC-MS/MS after 0, 30 and 60 minutes for Example 1, Example 2, Example 3, Example 4, Example 5 and Example 6, and after 0, 60 and 120 minutes for Comparative Example 3, Comparative Example 4, Comparative Example 6, Comparative Example 7, Comparative Example 8, Comparative Example 9, Comparative Example 10 and Comparative Example 12, and the attrition rate of the test compound and the conversion rate of the test compound to Alvocidib were calculated by the following formula. Attrition rate of test compound (%):(peak area of test compound in sample/peak area of test compound in sample after 0 minute)×100 Conversion rate to Alvocidib (%):(peak area of Alvocidib in sample/peak area of Alvocidib in reaction solution containing 0.2 μmol/L Alvocidib)×100
(§4) The measurement conditions for LC-MS/MS are as follows. • HPLC: Prominence system (Shimadzu Corporation) • MS/MS: • Example 1, Example 2, Example 3, Example 4, Example 5, Example 6, Comparative Example 8 (mouse), Comparative Example 10 (mouse) and Comparative Example 12 (mouse) • QTRAP5500 (SCIEX) • Comparative Example 6, Comparative Example 7, Comparative Example 8 (human), Comparative Example 9, Comparative Example 10 (human) and Comparative Example 12 (human) • 4000 QTRAP (SCIEX) • column: • other than Example 3 and Example 4 • Cadenza CD-C18, 3 μm, 50×2 mm (Imtakt Corporation) • Example 3 and Example 4 • Kinetex C8, 2.6 μm, 50×2.1 mm (Phenomenex) • column temperature: 40° C. • mobile phase: • A: water containing 0.1% formic acid • B: acetonitrile containing 0.1% formic acid • A/B (min): • Example 1, Example 2, Example 5, Example 6, Comparative Example 8 (mouse), Comparative Example 10 (mouse) and Comparative Example 12 (mouse) • 90/10(0)→40/60(5.0)→10/90(5.1)→10/90(6.5)→90/10(6.6)→90/10(8.0) • Example 3 and Example 4 • 86/14(0)→86/14(3.5)→10/90(5.5)→10/90(6.5)→86/14(6.6)→86/14(9.5) • Comparative Example 6, Comparative Example 7, Comparative Example 8 (human), Comparative Example 9, Comparative Example 10 (human) and Comparative Example 12 (human) • 90/10(0)→10/90(2.5)→10/90(3.5)→90/10(3.6)→90/10(5.0) • flow rate: 0.4 mL/min • detection: ESI (positive mode) • injection: 1 to 5 μL

[5] = Evaluation of conversion rate to active form in human plasma (Experimental Example 3); format: in vitro ADME; settings: human, 0.2 μmol/L
Experimental: as §2, §3, §4

[6] = Pharmacokinetic test, intravenous solution and liposome formulations in mice (Experimental Example 6); format: in vivo; settings: female BALB/c mice
Experimental: This was used as a solution formulation.
This was used as a liposome formulation.
as §1, with “3.238” for “7.77”, “1.160” for “2.78”, “1,2-disteroyl-rac-glycero-3-methylpolyoxyethylen” for “distearoylphosphatidylethanolamine-methoxypolyethylene glycol”, “GS-020,” for “DSPE-020CN,”, “0.983” for “2.47”, “(300” for “(720”
To the above lipid mixture was added to a 250 mM ammonium sulfate solution (100 mL), and the mixture was warmed to 65° C., and dispersed by a homogenizer (ULTRA-TURRAX, manufactured by IKA) to give a crude liposome dispersion. […] The solution was filtered through a 0.22 μm membrane filter to adjust the total lipid concentration to 75 mM (75 μmol/mL). […] The solution was adjusted to pH 5 to 6 with 1 mol/L aqueous sodium hydroxide solution, warmed in a 65° C. water bath for 3 minutes, and ice-cooled. The liposome outer solution was replaced with 10 mM tartrate buffer solution/10% sucrose solution (pH 4) using a dialysis cassette (Slide-A-Lyzer G2 Dialysis Cassettes 20K MWCO, manufactured by Thermo Scientific), followed by filtration through a 0.22 μm membrane filter to adjust the concentration.
The solution formulation or liposome formulation was instantly administered intravenously to 7-week-old female BALB/c mice, and the blood was collected over time from the jugular vein without anesthesia up to 24 hours after administration for the solution formulation administration group and up to 72 hours after administration for the liposome formulation administration group. […] The plasma sample was centrifuged, and the concentrations of the test compound and Alvocidib in the obtained supernatant were determined by LC-MS/MS.

[7] = Compound concentration when encapsulated 5 mg/mL
[8] = Compound concentration when encapsulated 10 mg/mL

## CN1CC[C@H](c2c(O)cc(O)c3c(=O)cc(-c4ccccc4Cl)oc23)[C@H](O)C1.Cl [Alvocidib hydrochloride, 2-(2-chlorophenyl)-5,7-dihydroxy-8-[(3S,4R)-3-hydroxy-1-methylpiperidin-4-yl]-4H-chromen-4-one hydrochloride, reference compound]
[1]; [7]
  Encapsulated compound content per 50 μmol of lipid: 4.8 mg
  Encapsulation efficiency: 96.2%
  Encapsulation rate: 99.5%
[1]; [8]
  Encapsulation rate: not encapsulated due to gelation
[1]; concentration 5 mg/mL
  Encapsulation in liposomes: could be encapsulated in liposomes
[1]; concentration of 10 mg/mL
  Encapsulation in liposomes: could not be encapsulated in liposomes

## CN1CC[C@H](c2c(O)cc(O)c3c(=O)cc(-c4ccccc4Cl)oc23)[C@H](O)C1 [Alvocidib]
[2]
  AUC: 3.4 µmol·min/L

## CCC(=O)O[C@@H]1CN(C)CC[C@@H]1c1c(O)cc(O)c2c(=O)cc(-c3ccccc3Cl)oc12 [Comparative Example 6]
[3]; pH7.4, 0 hr
  Production rate of Alvocidib: 4.3%
  Residual rate: 93.7%
[3]
  Conversion to Alvocidib at pH 7.4: slowly converted to Alvocidib
[3]; pH7.4, 0.5 hr
  Production rate of Alvocidib: 4.4%
  Residual rate: 93.6%
[3]; pH7.4, 1 hr
  Production rate of Alvocidib: 4.5%
  Residual rate: 95.1%
[3]; pH7.4, 2 hr
  Production rate of Alvocidib: 4.7%
  Residual rate: 94.9%
[4]; 0 min
  Production rate (%) of Alvocidib: 6%
  Residual rate (%) of test compound: 100%
[4]; 60 min
  Production rate (%) of Alvocidib: 48%
  Residual rate (%) of test compound: 48%
[4]; 120 min
  Production rate (%) of Alvocidib: 66%
  Residual rate (%) of test compound: 33%
[5]; 0 min
  Production rate (%) of Alvocidib: 5%
  Residual rate (%) of test compound: 100%
[5]; 60 min
  Production rate (%) of Alvocidib: 12%
  Residual rate (%) of test compound: 89%
[5]; 120 min
  Production rate (%) of Alvocidib: 15%
  Residual rate (%) of test compound: 89%
[6]
  Blood retention of liposome formulation compared with the corresponding solution formulation: did not show improved blood retention

## CN1CC[C@H](c2c(O)cc(O)c3c(=O)cc(-c4ccccc4Cl)oc23)[C@H](OC(=O)c2ccccc2F)C1 [Comparative Example 12]
[3]; pH7.4, 0 hr
  Production rate of Alvocidib: 1.4%
  Residual rate: 98.0%
[3]
  Conversion to Alvocidib at pH 7.4: slowly converted to Alvocidib
[3]; pH7.4, 0.5 hr
  Production rate of Alvocidib: 1.5%
  Residual rate: 97.5%
[3]; pH7.4, 1 hr
  Production rate of Alvocidib: 1.6%
  Residual rate: 97.6%
[3]; pH7.4, 2 hr
  Production rate of Alvocidib: 1.8%
  Residual rate: 97.6%
[4]; 0 min
  Production rate (%) of Alvocidib: 2%
  Residual rate (%) of test compound: 100%
[4]; 60 min
  Production rate (%) of Alvocidib: 19%
  Residual rate (%) of test compound: 85%
[4]; 120 min
  Production rate (%) of Alvocidib: 27%
  Residual rate (%) of test compound: 76%
[5]; 0 min
  Production rate (%) of Alvocidib: 0%
  Residual rate (%) of test compound: 100%
[5]; 60 min
  Production rate (%) of Alvocidib: 23%
  Residual rate (%) of test compound: 74%
[5]; 120 min
  Production rate (%) of Alvocidib: 32%
  Residual rate (%) of test compound: 58%

## CN1CC[C@H](c2c(OC(=O)N(C)C[C@@H]3COCCN3)cc(O)c3c(=O)cc(-c4ccccc4Cl)oc23)[C@H](O)C1 [Example 17, 2-(2-chlorophenyl)-5-hydroxy-8-[(3S,4R)-3-hydroxy-1-methylpiperidin-4-yl]-4-oxo-4H-1-benzopyran-7-yl methyl{[(3R)-morpholin-3-yl]methyl}carbamate]
[1]; [8]
  Encapsulated compound content per 50 μmol of lipid: 2.4 mg
  Encapsulation efficiency: 23.8%
  Encapsulation rate: 26.5%

— patent publication US12617779B2, “Self degradation-type CDK9 inhibitor prodrug and liposome encapsulating same” (Sumitomo Pharma Co., Ltd., priority 2021, dated 2026)
